Read-outs that look alike come from different tables or passages of the source.
What was measured:
K562 cells [1] = experiment: Annexin V APC/PI staining quantified by FACS; format: cell-based, human
Source text: The percentage of apoptotic cells was quantified as the fraction of cells showing fragmented nuclei, as assessed by fluorescence microscopy (Nikon, Tokyo, Japan) after staining with Hoechst 33342 (Sigma-Aldrich) and propidium iodide (Sigma-Aldrich). In addition, apoptosis was confirmed by Annexin V APC (Biolegend, 640919)/propidium iodide (BD Biosciences, 556547) staining and fluorescence-activated cell sorter (FACS) analysis according to the manufacturer protocol (BD Biosciences, 556547).

K562IR cells = experiment: Trypan blue exclusion test, viability; format: cell-based; settings: Homo sapiens, 24 h
Experimental: (§1) Cell proliferation and viability were assessed by the trypan blue exclusion method (Lonza), and viable cells were counted using a hematocytometer (Marienfeld, Lauda-Königshofen, Germany). Differential toxicity was calculated by comparing the viability of RPMI 1788 cells to the viability of cancer cells (normal/cancer cells). The difference in viability was expressed in terms of fold change.

K562 cells [2] = experiment: Trypan blue exclusion test, viability; format: cell-based, human; settings: Homo sapiens
Experimental: as §1

K562 = experiment: Seahorse XFp Cell Mito Stress test (OCR); format: cell-based, human; settings: K562, EE-84 30 µM, 72 h, vs control
Experimental: The oxygen consumption rate (OCR) was measured using a Seahorse XFp Cell Mito Stress Assay (#103010-100, Agilent Technologies, Seoul, Korea) ran on a Seahorse XFp analyzer (Agilent Technologies, Seoul, Korea) according to the manufacturer’s instructions. […] Before measurements, plates were equilibrated in a CO2-free incubator at 37 °C for 1 h. The analysis was performed using 1.5 µM oligomycin, 0.5 µM carbonyl cyanide-4-(trifluoromethoxy)phenylhydrazone (FCCP), and 1 µM rotenone/antimycin A as indicated. Data were analyzed using the Seahorse XF Cell Mito Stress Test report generator software (Agilent). The extracellular acidification rate (ECAR) was measured in response to the sequential injection of 10 mM glucose, 2 µM oligomycin (H+-ATP-synthase inhibitor), and 50 mM 2-deoxy-d-glucose (2DG) (hexokinase inhibitor) to detect non-glycolytic acidification, glycolysis, maximal glycolytic capacity, and glycolytic reserve using a Seahorse XFp analyzer with a Glycolysis Stress Test kit (Agilent, Santa Clara, CA, USA).

[3] = K562, 24 h, EE-84 30 μM, with z-VAD-fmk (50 μM)

## COc1ccc2c(c1)c(C(=O)C(=O)Nc1sc3c(c1C(C)=O)CC(C)CC3)cn2Cc1ccccc1 (stereo not drawn) [EE-84, N-(3-Acetyl-4,5,6,7-Tetrahydro-5-Methylbenzo[b]Thiophen-2-yl)-2-(1-Benzyl-5-Methoxy-1H-Indol-3-yl)-2-Oxoacetamide]
K562 cells [1]; K562, 24 h, EE-84 30 μM
  AnnV+/PI+ (%): 2.98 ± 0.23%
  AnnV+/PI− (%): 6.00 ± 1.43%
  Combined cell death (%): 8.98 ± 2.14%
K562 cells [1]; [3]
  AnnV+/PI+ (%): 3.13 ± 0.21%
  AnnV+/PI− (%): 5.33 ± 1.35%
  Combined cell death (%): 8.46 ± 1.55%
K562 cells [1]; K562, EE-84 10 μM (Figure 3B)
  AnnV+/PI+ (%): 2.50 ± 0.62%
  AnnV+/PI− (%): 7.05 ± 1.46%
  Combined cell death (%): 9.55 ± 3.22%
K562 cells [1]; K562, EE-84 20 μM (Figure 3B)
  AnnV+/PI+ (%): 4.40 ± 0.94%
  AnnV+/PI− (%): 5.60 ± 1.98%
  Combined cell death (%): 10.00 ± 0.85%
K562 cells [1]; K562, EE-84 30 μM (Figure 3B)
  AnnV+/PI+ (%): 7.51 ± 2.70%
  AnnV+/PI− (%): 6.65 ± 2.29%
  Combined cell death (%): 14.16 ± 0.61%
K562 cells [1]; K562, EE-84 40 μM (Figure 3B)
  AnnV+/PI+ (%): 8.97 ± 1.03%
  AnnV+/PI− (%): 7.71 ± 2.10%
  Combined cell death (%): 16.68 ± 0.89%
K562 cells [1]; K562, EE-84 50 μM (Figure 3B)
  AnnV+/PI+ (%): 8.25 ± 1.95%
  AnnV+/PI− (%): 8.22 ± 3.12%
K562IR cells; EE-84 30 µM
  viability at 30 µM: 95.3 ± 0.6%
K562IR cells; EE-84 50 µM
  viability at 50 µM: 97 ± 2.7%
K562 cells [2]; K562, EE-84 30 μM 48 h with Baf-A1 (40 nM) post-treatment for last 8 h, read-out: cell viability
  viability at 30 µM: 89%
K562 cells [2]; K562, EE-84 30 µM, 24 h, read-out: Viability (24 h)
  viability at 30 µM: 98 ± 1%
K562 cells [2]; K562, EE-84 30 μM, 48 h, alone, read-out: cell viability
  viability at 30 µM: 98.7%
K562 cells [2]; K562, EE-84 50 µM, 24 h
  viability at 50 µM: 96 ± 0.7%
K562
  oxygen consumption rate (OCR): significantly decreased

From paper PMC8224038, “Anti-Leukemic Properties of Aplysinopsin Derivative EE-84 Alone and Combined to BH3 Mimetic A-1210477” (Marine Drugs, 2021)
